Reference: patent US7378387B2, “Method of suppressing immune response by reducing intracellular content of glutathione in macrophages and monocytes” (Ajinomoto Co., Inc., priority 1997, dated 2008)

How the values were obtained:
NO = NO production from macrophages induced through administration (Example 9, Table 1); assay type: in vivo, DBA/2 mice; details: LPS 100 ng/ml, IFNγ 100 units/ml
Method: A stimulator was added to 1×10^5 MΦ, and the incubation was conducted at 37° C. for 2 days in a CO2 incubator. After the completion of the centrifugation, the culture supernatant was collected.
One hundred microliters of a Griess-Romijn reagent (supplied by Waco Pure Chemical Industries, Ltd.) adjusted to a concentration of 50 mg/ml in distilled water were added to 100 μl of the culture supernatant, and the reaction was conducted at room temperature for 15 minutes. After the completion of reaction, an absorbance of 540 nm was measured. NaNO2 was used as a standard.
(§1) This was clarified by harvesting peritoneal exudate cells 20 hours after the completion of the administration, adhering the cells to the plastic surface, then reacting the cells with 10 μM of monochlorobimane at 37° C. for 30 minutes, and analyzing the reaction product with ACAS. The increase in the amounts of oxidative macrophages can easily be determined visually from the fact that almost no reaction product with monochlorobimane is observed, namely, a gray or blue image is provided, and the increase in the amounts of reductive macrophages from the fact that a red or yellow image is provided respectively. […] Meanwhile, the same examination was conducted by harvesting peritoneal exudate cells after 20 hours of the administration of 2 mg of N-acetylcystine (NAC).
(§2) Thus, the peritoneal exudate adherent cells were incubated in the following manner, and the amounts of NO and IL-12 produced in the culture supernatant were measured. With respect to the amount of IL-6, the amount of IL-6 produced spontaneously in the absence of a stimulator was measured.
(§3) Cells: The peritoneal exudate adherent cells obtained by the stimulation, namely, the macrophages were added to a 96-well microplate in an amount of 1×10^5 cells/200 μl each.
(§4) Medium: Phenol red-free RPMI 1640: 200 μl/well
(§5) LPS: Lipopolysaccharide (made by Sigma Co.) (origin: E. coli) 100 ng/ml

[1] = system: spontaneous onset of insulin-dependent diabetes mellitus; assay: Onset of diabetes mellitus in NOD mice dosed at age 9 to 11 weeks (Example 25); assay type: in vivo; details: nine times
Excerpt: NOD mice purchased from Nippon Clair, Co. were naturally mated together. Among the off spring mice, a colony of NOD mice with a high frequency of the spontaneous onset of insulin-dependent diabetes mellitus was established. Female NOD mice from the colony were used for the present experiment. Chemical agents were orally or intraperitoneally administered to the NOD mice aged 9 to 11 weeks three times per week, in total nine times; and based on the test results of urine glucose, positive or negative, the onset of diabetes mellitus was followed once per week. Urine glucose was detected, using Uropaper (BM Test Glucose 5000, manufactured by Yamanouchi Pharmaceuticals, Co. Ltd.). The onset was judged on week 22; the doses were the same as in Example 24.

[2] = system: spontaneous onset of insulin-dependent diabetes mellitus; assay: Onset of diabetes mellitus in NOD mice dosed at age 3 to 6 weeks (Example 23); assay type: in vivo; details: three times per week, nine times; for Frequency (%) of onset of diabetes mellitus, on age 18 weeks: saline 50; for Frequency (%) of onset of diabetes mellitus, on age 22 weeks: saline 80
Method: NOD mice purchased from Nippon Clair, Co. were naturally mated together. Among the off spring mice, a colony of NOD mice with a high frequency of the spontaneous onset of insulin-dependent diabetes mellitus was established. Female NOD mice from the colony were used for the present experiment. […] Urine glucose was detected, using Uropaper (BM Test Glucose 5000, manufactured by Yamanouchi Pharmaceuticals, Co. Ltd.). Chemical agents were administered intraperitoneally, unless otherwise stated. […] (NAC)2 and (NAC-OMe)2 were at a single dose of 20 μg/animal; and NAC and GSHOEt were at a single dose of 2 μg/animal; and a single dose of lentinan was 0.1 mg/kg.

IL-6 = IL-6 production from macrophages induced through administration (Example 9, Table 1); assay type: in vivo, DBA/2 mice; set-up: concentration or dose not given beside the values; details: produced spontaneously in the absence of a stimulator
Method: A stimulator was added to 1×10^6 MΦ, and the incubation was conducted at 37° C. for 2 days in a CO2 incubator. After centrifugation, the culture supernatant was collected.
The amount of IL-6 was determined using IL-6 dependent mouse hybridoma MH60 cells (J. Eur. Immunol., vol. 18, p. 951, 1988). One hundred microliters of the culture supernatant were added to 100 μl of the MH60 cell suspension adjusted to 1×10^5 cells/ml in a 10% FCS-containing RPMI medium, and the mixed solution was incubated at 37° C. for 2 days in a CO2 incubator. Subsequently, 10 μl of MTT (supplied by Sigma Co.) solution adjusted to a concentration of 5 mg/ml in the same medium were added thereto, and the reaction was conducted at 37° C. for 5 hours. After the completion of the reaction, the centrifugation was conducted. The supernatant (160 μl) was removed, and 100 μl of a mixture of hydrochloric acid and propanol were added to the residue. The suspension was conducted using a pipetman to dissolve the cells. Immediately after the dissolution, an absorbance of 570 nm was measured with an immunometer (supplied by Bio-Rad).
as §1, §2, §3, §4

IL-12 = IL-12 production from macrophages induced through administration (Example 9, Table 1); assay type: in vivo, DBA/2 mice; details: LPS 100 ng/ml, IFNγ 100 units/ml
Method: The amount of IL-12 was determined through bioassay using cells of human T cell strain 2D6 (J. Leukocyte Biology, vol. 61, p. 346, 1997).
2D6 cells which had been incubated in an RPMI 1640 medium containing 500 pg/ml of recombinant human IL-12, 50 μM of 2-mercaptoethanol and 10% FCS (fetal calf serum) were moved to a tube, and centrifugally washed three times with the above-mentioned medium without IL-12 and cell density was adjusted to 1×10^5/ml. The cell suspension was added in an amount of 100 μl each to a 96-well flat bottom plate containing a sample serially diluted in advance with an RPMI 1640 medium containing 50 μM of 2-mercaptoethanol and 10% FCS in an amount of 100 μl each. Subsequently, the mixture was charged into a 5% […] incubator of 37° C., and incubated for 48 hours. For final 6 hours, ^3H-TdR was pulsed (a substance adjusted to 370 kBq/ml in an RPMI 1640 medium containing 50 μM of 2-mercaptoethanol and 10% FCS was added in an amount of 50 μl each). The cells a harvested, and the radioactivity was measured using a β counter (Matrix 96, supplied by Packard).
The increase in the amounts of oxidative macrophages can easily be determined visually from the fact that almost no reaction product with monochlorobimane is observed, namely, a gray or blue image is provided, and the increase in the amounts of reductive macrophages from the fact that a red or yellow image is provided respectively. […] Meanwhile, the same examination was conducted by harvesting peritoneal exudate cells after 20 hours of the administration of 2 mg of N-acetylcystine (NAC).
as §2, §3, §4, §5

| Structure (SMILES) | NO, amount produced relative to that of control group (NO) [%] | Frequency (%) of onset of diabetes mellitus ([1]; route not given, judged on week 22, saline 67) [%] | Frequency (%) of onset of diabetes mellitus, on age 18 weeks ([2]; intraperitoneal) [%] | Frequency (%) of onset of diabetes mellitus, on age 22 weeks ([2]; intraperitoneal) [%] | IL-6, amount produced relative to that of control group (IL-6) [%] | IL-12, amount produced relative to that of control group (IL-12) [%] | Frequency (%) of onset of diabetes mellitus ([1]; intraperitoneal, judged on week 22, doses as in Example 24, saline 67) [%] | Frequency (%) of onset of diabetes mellitus ([1]; oral, judged on week 22, doses as in Example 24, saline 67) [%] | Frequency (%) of onset of diabetes mellitus, on age 18 weeks ([2]; oral) [%] | Frequency (%) of onset of diabetes mellitus, on age 22 weeks ([2]; oral) [%] |
| --- | --- | --- | --- | --- | --- | --- | --- | --- | --- | --- |
| CC(=O)N[C@@H](CSSC[C@H](NC(C)=O)C(=O)O)C(=O)O [(NAC)2, N,N′-diacetylcystine] | 18 | 60 | 60 | 80 | 340 | 15 |  |  |  |  |
| COC(=O)[C@H](CSSC[C@H](NC(C)=O)C(=O)OC)NC(C)=O [(NAC-OMe)2, N,N′-diacetylcystine dimethyl ester] | 12 |  | 70 | 80 | 320 | 11 | 11 |  |  |  |
| CCOC(=O)CNC(=O)[C@H](CS)NC(=O)CC[C@H](N)C(=O)O [GSH-OEt, glutathione monoethyl ester] |  |  | 0 | 5 |  |  |  |  |  |  |
| CC(=O)N[C@@H](CS)C(=O)O [NAC, N-acetylcysteine, reference compound] | 172 |  | 10 | 20 | 42 | 920 |  | 60 | 30 | 40 |
